Experiments:
PC-12 cells = assay: Cell death protective effect in adrenal cells against Erastin, glutamate and RSL3 (LDH); assay type: cell-based, rat; conditions: 24 hours
Method: In order to identify the protective effect on adrenal cells, PC-12 cells were divided into 96-well plates by 1×10^4 and cultured for 18 to 24 hours. The compounds of Examples were diluted to final concentrations of 0.1 and 1.0 μM in Erastin, 0.01 and 0.1 in glutamate, and 0.3 and 3.0 μM in RSL3, treated in each well, and incubated for 15 to 20 minutes. Erastin, glutamate, and RSL3 were treated to have final concentrations of 1 μM, 10 mM, and 0.3 μM, respectively, and cultured for 24 hours. In order to identify the protective effect of each compound, the degree of LDH extracellular secretion was measured using cytotoxicity LDH assay kit [Dojindo; CK12]. Briefly, at the time when the treatment of the cells with Erastin, glutamate, and RSL3 for 24 hours is completed, the supernatants containing the cells are taken by 70 μL and transferred to a new 96-well plate. The assay buffer included in the kit is added in an amount of 70 μL/well (the same amount as the sample) thereto, and then the plate is wrapped with a foil and the reaction is performed at room temperature for 15 minutes. After observing the changed color of the sample, the stop solution was added in an amount of 35 µL/well thereto, and then the 0 inhibition value was calculated by measuring the absorbance value at a wavelength of 490 nm using an iD3 spectrophotometer.

ARPE-19 cells = assay: Cell death protective effect in retinal epithelial cells against Erastin and RSL3 (LDH); assay type: cell-based, human; conditions: 24 hours
Method: In order to identify the protective effect on retinal epithelial cells, ARPE-19 cells were divided into 96-well plates by 1×10^4 and cultured for 18 to 24 hours. The compounds of Examples were diluted to final concentrations of 0.03 and 0.3 μM, treated in each well, and incubated for 20 minutes. Erastin, and RSL3 were treated to have final concentrations of 10 μM, and 0.3 μM, respectively, and cultured for 24 hours. In order to identify the protective effect of each compound, the degree of LDH extracellular secretion was measured using cytotoxicity LDH assay kit [Dojindo; CK12]. Briefly, at the time when the treatment of the cells with Erastin, and RSL3 for 24 hours is completed, the supernatants containing the cells are taken by 70 μL and transferred to a new 96-well plate. The assay buffer included in the kit is added in an amount of 70 μL/well (the same amount as the sample) thereto, and then the plate is wrapped with a foil and the reaction is performed at room temperature for 15 minutes.

[1] = PC-12, Erastin 1 μM, compound 0.1 μM
[2] = PC-12, Erastin 1 μM, compound 1.0 μM
[3] = PC-12, Glutamate 10 mM, compound 0.01 μM
[4] = PC-12, Glutamate 10 mM, compound 0.1 μM
[5] = PC-12, RSL3 0.3 μM, compound 0.3 μM
[6] = PC-12, RSL3 0.3 μM, compound 3.0 μM
[7] = ARPE-19, Erastin 10 μM, compound 0.03 μM
[8] = ARPE-19, Erastin 10 μM, compound 0.3 μM
[9] = ARPE-19, RSL3 0.3 μM, compound 0.03 μM
[10] = ARPE-19, RSL3 0.3 μM, compound 0.3 μM

SMILES | inhibition (%) (PC-12 cells; [1]) | inhibition (%) (PC-12 cells; [2]) | inhibition (%) (PC-12 cells; [3]) | inhibition (%) (PC-12 cells; [4]) | inhibition (%) (PC-12 cells; [5]) | inhibition (%) (PC-12 cells; [6]) | inhibition (%) (ARPE-19 cells; [7]) | inhibition (%) (ARPE-19 cells; [8]) | inhibition (%) (ARPE-19 cells; [9]) | inhibition (%) (ARPE-19 cells; [10])
COCCOCc1cc(NC2CCOCC2)c2[nH]c(-c3ccccc3)cc2c1 [Example 1, 5-(2-methoxyethoxymethyl)-2-phenyl-N-tetrahydropyran-4-yl-1H-indol-7-amine] | 100% | 100% | 53% | 98% | 100% | 100% | 100% | 100% | 95% | 100%
COCCOCc1cc(NCC2CCOCC2)c2[nH]c(-c3ccccc3)cc2c1 [Example 4, 5-2(methoxyethoxymethyl)-2-phenyl-N-(tetrahydropyran-4-ylmethyl)-1H-indol-7-amine] | 100% | 100% | 53% | 96% | 100% | 100% | 100% | 100% | 100% | 100%
COCCOCc1cc(NC2CCN(C(C)=O)CC2)c2[nH]c(-c3ccccc3)cc2c1 [Example 30, 1-[4-[[5-(2-methoxyethoxymethyl)-2-phenyl-1H-indol-7-yl]amino]piperidyl]-1-ethanone] | 86% | 100% | 33% | 95% | 100% | 100% | 80% | 100% | 60% | 100%
CCOCCOCc1cc(NC2CCCC2)c2[nH]c(-c3ccccc3)cc2c1 [Example 36, N-cyclopentyl-5-(2-ethoxyethoxymethyl)-2-phenyl-1H-indol-7-amine] | 100% | 100% | 61% | 95% | 100% | 100% | 98% | 100% | 100% | 100%
COCCOCCOCc1cc(NC2CCCC2)c2[nH]c(-c3ccccc3)cc2c1 [Example 39, N-cyclopentyl-5-[2-(2-methoxyethoxy)ethoxymethyl]-2-phenyl-1H-indol-7-amine] | 100% | 100% | 52% | 97% | 100% | 100% | 100% | 100% | 100% | 100%
COCCOCc1cc(NCc2ccncc2)c2[nH]c(-c3ccccc3)cc2c1 [Example 45, 5-(2-methoxyethoxymethyl)-2-phenyl-N-(4-pyridylmethyl)-1H-indol-7-amine] | 100% | 100% | 57% | 100% | 100% | 100% | 100% | 100% | 100% | 100%
COCCOCc1cc(NC2CCOCC2)c2[nH]cc(C)c2c1 [Example 50, 5-(2-methoxyethoxymethyl)-3-methyl-N-tetrahydropyran-4-yl-1H-indol-7-amine] | 41% | 68% | 16% | 25% | 0% | 100% | 19% | 86% | 4% | 45%
COCCOCc1cc(NC2CCNCC2)c2[nH]c(-c3ccccc3)cc2c1 [Example 64, 5-((2-methoxyethoxy)methyl)-2-phenyl-N-(piperidin-4-yl)-1H-indol-7-amine] | 100% | 100% | 39% | 97% | 78% | 100% | 100% | 100% | 67% | 100%
CCOC(=O)c1ccc(NC2CCCCC2)c(N)c1 [Ferrostatin-1, reference compound] | 100% | 100% | 35% | 98% | 100% | 100% | 86% | 100% | 61% | 100%

— patent publication US20250122155A1, “NOVEL INDOLE DERIVATIVE, PHARMACEUTICAL COMPOSITION COMPRISING SAME, AND USE THEREOF” (MITOIMMUNE THERAPEUTICS INC., priority 2021, published 2025)
